Measurements published in patent US20110230485A1, “6-PHENYL-PYRIMIDIN-4-YL-(PHENYLAMINE OR PHENOXY) DERIVATIVES USEFUL AS MODULATORS OF NICOTINIC ACETYLCHOLINE RECEPTORS” (NEUROSEARCH A/S, priority 2008, published 2011).

How the values were obtained:
[1] = molecular target: T1, wild-type nAChR α7 receptors (Homo sapiens, UniProt P36544); assay: Positive modulation of nAChR α7 receptors expressed in Xenopus laevis oocytes, two-electrode voltage clamp; assay type: cell-based; conditions: oocytes clamped at −60 mV; for Emax: read-out: Imax; for EC50: positive modulation of current induced by 100 μM acetylcholine, test compound 0.01-31.6 μM applied 30 s before and during acetylcholine
T1 construct: expressed in transfected cells; host or cells: Xenopus laevis oocytes
T1 sequence (P36544 23-502): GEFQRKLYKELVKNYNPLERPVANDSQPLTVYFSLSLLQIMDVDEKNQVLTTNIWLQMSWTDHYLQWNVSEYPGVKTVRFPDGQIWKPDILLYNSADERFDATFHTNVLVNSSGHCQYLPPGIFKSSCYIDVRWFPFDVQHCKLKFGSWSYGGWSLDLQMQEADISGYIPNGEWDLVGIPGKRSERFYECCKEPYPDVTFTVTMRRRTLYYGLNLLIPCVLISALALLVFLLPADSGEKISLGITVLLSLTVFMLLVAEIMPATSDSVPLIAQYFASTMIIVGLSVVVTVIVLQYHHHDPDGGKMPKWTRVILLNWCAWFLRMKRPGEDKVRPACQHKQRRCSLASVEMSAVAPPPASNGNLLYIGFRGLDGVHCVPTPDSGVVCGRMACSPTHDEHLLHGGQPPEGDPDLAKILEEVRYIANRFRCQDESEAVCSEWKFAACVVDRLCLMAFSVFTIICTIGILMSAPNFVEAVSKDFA
Procedure: In this example the positive modulation of wild-type nAChR α7 receptors by the compounds of the invention was determined using nAChR α7 receptors heterologously expressed in Xenopus laevis oocytes.
The electrical current through the nAChR α7 channel was measured using conventional two-electrode voltage clamp and nAChR α7 currents were activated by applying pulses of agonist-containing solution onto the nAChR α7 expressing oocyte.
In brief, the oocytes were placed in a recording chambers and continuously super-fused with an Oocyte Ringer (OR) solution containing 90 mM NaCl, 2.5 mM KCl, 2.5 mM CaCl2, 1 mM MgCl2 and 5 mM HEPES (pH adjusted to 7.4). The oocytes were clamped at −60 mV and currents were induced by applying 20 s pulses of 100 μM acetylcholine dissolved in OR. The intervals between the acetylcholine applications were 5 minutes, during which the oocytes were washed with OR. The first three applications were control applications to insure a constant response level of 100 μM acetylcholine. For the subsequent test applications, increasing concentrations (0.01-31.6 μM) of the test compound were applied 30 s before and during the acetylcholine (100 μM) application, which caused a robust increase in the acetylcholine-induced current amplitude.
The positive modulation in the presence of Compound was calculated as (test-control)/control×100% and the concentration response curve for this positive modulation was fitted to the sigmoidal logistic equation:
I=Imax/(1+(EC50/[compound])^n),
where Imax represents the maximal modulation of the control response, EC50 is the concentration causing a half maximal response, and n is the slope coefficient.

[2] = maximal modulation of the control response to 100 μM acetylcholine, (test-control)/control×100%

Row | Emax [1, 2] | melting point | EC50 [1] | Imax [1, 2] | Compound
1 | 2% | 155.6 to 155.8 °C | – | – | COc1ccc(Nc2ncnc(-c3ccc(C(F)(F)F)cc3F)c2[N+](=O)[O-])cc1 [Compound 1.1, [6-(2-Fluoro-4-trifluoromethyl-phenyl)-5-nitro-pyrimidin-4-yl]-(4-methoxy-phenyl)-amine]
2 | 391% | 169 to 171.5 °C | 23 µM | – | O=[N+]([O-])c1c(Nc2ccc(O)cc2)ncnc1-c1ccc(C(F)(F)F)cc1F [Compound 1.2, 4-[6-(2-Fluoro-4-trifluoromethyl-phenyl)-5-nitro-pyrimidin-4-ylamino]-phenol]
3 | – | 212.1 to 213.2 °C | 2.3 µM | – | COc1ccc(Nc2ncnc(-c3ccc(C(F)(F)F)cc3F)c2N)cc1 [Compound 1.3, 6-(2-Fluoro-4-trifluoromethyl-phenyl)-N*4*-(4-methoxy-Phenyl)-pyrimidine-4,5-diamine]
4 | – | 194.2 to 195.7 °C | – | – | Nc1c(Nc2ccc(O)cc2)ncnc1-c1ccc(C(F)(F)F)cc1F [Compound 1.4, 4-[5-Amino-6-(2-fluoro-4-trifluoromethyl-phenyl)-pyrimidin-4-ylamino]-phenol]
5 | 137% | – | 6.6 µM | – | COc1ccc(Nc2ncnc(-c3ccc(C(F)(F)F)cc3F)c2[N+](=O)[O-])cn1 [Compound 1.5, [6-(2-Fluoro-4-trifluoromethyl-phenyl)-5-nitro-pyrimidin-4-yl]-(6-methoxy-pyridin-3-yl)-amine]
6 | – | – | – | 129% | COc1ccc(Nc2ncnc(-c3ccc(C(F)(F)F)cc3F)c2N)cn1 [Compound 1.6, 6-(2-Fluoro-4-trifluoromethyl-phenyl)-N*4*-(6-methoxy-rwridin-3-yl)-pyrimidine-4,5-diamine]
7 | 237% | – | 6.8 µM | – | Nc1c(Nc2ccc(S(N)(=O)=O)cc2)ncnc1-c1ccc(C(F)(F)F)cc1F [Compound 1.8, 4-[5-Amino-6-(2-fluoro-4-trifluoromethyl-phenyl)-pyrimidin-4-ylamino]-benzenesulfonamide]
8 | 527% | – | 6.9 µM | – | O=[N+]([O-])c1c(Nc2ccc3[nH]ccc3c2)ncnc1-c1ccc(C(F)(F)F)cc1F [Compound 1.9, [6-(2-Fluoro-4-trifluoromethyl-phenyl)-5-nitro-pyrimidin-4-yl]-(1H-indol-5-yl)-amine]
9 | 631% | – | 0.24 µM | – | Nc1c(Nc2ccc3[nH]ccc3c2)ncnc1-c1ccc(C(F)(F)F)cc1F [Compound 1.10, 6-(2-Fluoro-4-trifluoromethyl-phenyl)-N*4*-(1H-indol-5-yl)-pyrimidine-4,5-diamine]
10 | 22% | – | – | – | Nc1c(Nc2ccc(O)nc2)ncnc1-c1ccc(C(F)(F)F)cc1F [Compound 1.11, 5-[5-Amino-6-(2-fluoro-4-trifluoromethyl-phenyl)-pyrimidin-4-ylamino]-pyridin-2-ol]
11 | 184% | – | 9.9 µM | – | Nc1c(Nc2ccc3[nH]ncc3c2)ncnc1-c1ccc(C(F)(F)F)cc1F [Compound 1.12, 6-(2-Fluoro-4-trifluoromethyl-phenyl)-N*4*-(1H-indazol-5-yl)-pyrimidine-4,5-diamine]
12 | 848% | – | 54 µM | – | Nc1c(Nc2ccc3c(c2)OCO3)ncnc1-c1ccc(C(F)(F)F)cc1F [Compound 1.13, N*4*-Benzo[1,3]dioxol-5-yl-6-(2-fluoro-4-trifluoromethyl-phenyl)-pyrimidine-4,5-diamine]
13 | 3% | – | – | – | Nc1c(Nc2ccc(OCC3CC3)cc2)ncnc1-c1ccc(C(F)(F)F)cc1F [Compound 1.14, N*4*-(4-Cyclopropylmethoxy-phenyl)-6-(2-fluoro-4-trifluoromethyl-phenyl)-pyrimidine-4,5-diamine]
14 | 495% | – | 4.9 µM | – | COc1ccc(Nc2nc(C)nc(-c3ccc(C(F)(F)F)cc3F)c2N)cc1 [Compound 1.16, 6-(2-Fluoro-4-trifluoromethyl-phenyl)-N*4*-(4-methoxy-phenyl)-2-methyl-pyrimidine-4,5-diamine]
15 | 503% | – | 3.4 µM | – | Cc1ccc(Nc2nc(C)nc(-c3ccc(C(F)(F)F)cc3F)c2N)cc1 [Compound 1.27, 6-(2-Fluoro-4-trifluoromethyl-phenyl)-2-methyl-N*4*-p-tolyl-pyrimidine-4,5-diamine]
16 | 297% | – | 9.4 µM | – | Cc1nc(Nc2ccc3c(c2)OCCO3)c(N)c(-c2ccc(C(F)(F)F)cc2F)n1 [Compound 1.29, N*4*-(2,3-Dihydro-benzo[1,4 dioxin-6-yl)-6-(2-fluoro-4-trifluoromethyl-phenyl)-2-methyl-pyrimidine-4,5-diamine]
17 | 193% | – | 5.7 µM | – | COc1cccc(Nc2nc(C)nc(-c3ccc(C(F)(F)F)cc3F)c2N)c1 [Compound 1.31, 6-(2-Fluoro-4-trifluoromethyl-phenyl)-N*4*-(3-methoxy-phenyl)-2-methyl-pyrimidine-4,5-diamine]
18 | 245% | – | 9.8 µM | – | CSc1cccc(Nc2nc(C)nc(-c3ccc(C(F)(F)F)cc3F)c2N)c1 [Compound 1.32, 6-(2-Fluoro-4-trifluoromethyl-phenyl)-2-methyl-N*4*-(3-methylsulfanyl-phenyl)-pyrimidine-4,5-diamine]
19 | 11% | – | 1.1 µM | – | COc1ccc(Nc2nc(C)nc(-c3ccc(C(F)(F)F)cc3F)c2N)c(OC)c1 [Compound 1.33, N*4*-(2,4-Dimethoxy-phenyl)-6-(2-fluoro-4-trifluoromethyl-phenyl)-2-methyl-pyrimidine-4,5-diamine]
20 | 148% | – | 4.3 µM | – | Cc1nc(Nc2ccc3ccccc3c2)c(N)c(-c2ccc(C(F)(F)F)cc2F)n1 [Compound 1.34, 6-(2-Fluoro-4-trifluoromethyl-phenyl)-2-methyl-N*4*-naphthalen-2-v1-pyrimidine-4,5-diamine]
21 | 19% | – | – | – | COc1ccc(Oc2ncnc(-c3ccc(C(F)(F)F)cc3F)c2[N+](=O)[O-])cc1 [Compound 2.1, 4-(2-Fluoro-4-trifluoromethyl-phenyl)-6-(4-methoxy-phenoxy)-5-nitro-pyrimidine]
22 | 119% | – | 6.6 µM | – | COc1ccc(Oc2ncnc(-c3ccc(C(F)(F)F)cc3F)c2N)cc1 [Compound 2.2, 4-(2-Fluoro-4-trifluoromethyl-phenyl)-6-(4-methoxy-phenoxy)-pyrimidin-5-ylamine]
23 | 104% | – | 15 µM | – | Nc1c(Oc2ccc(O)cc2)ncnc1-c1ccc(C(F)(F)F)cc1F [Compound 2.3]
24 | 35% | – | 0.74 µM | – | Cc1nc(Oc2ccc3c(c2)OCO3)c(N)c(-c2ccc(C(F)(F)F)cc2F)n1 [Compound 2.9]
25 | 42% | – | 6 µM | – | COc1ccc(Oc2nc(C)nc(-c3ccc(C(F)(F)F)cc3F)c2N)cc1 [Compound 2.13, 4-(2-Fluoro-4-trifluoromethyl-phenyl)-6-(4-methoxy-phenoxy)-2-methyl-pyrimidin-5-ylamine]
